Test results taken from patent publication US20140093558A1, “STABLE CRYSTAL MODIFICATIONS OF DOTAP CHLORIDE” (MERCK PATENT GMBH, priority 2011, published 2014).
Read-outs that look alike come from different tables or passages of the source.

Experiments:
[1] = Hygroscopicity / handling properties; format: physicochemical; conditions: crystalline forms
[2] = Storage stability of crystalline DOTAP chloride, remaining content by HPLC; format: physicochemical; conditions: for remaining content of (2R,S)-DOTAP chloride (HPLC) / remaining content/purity of (2R,S)-DOTAP chloride (HPLC): exclusion of air; for stability values compared with crystalline (2R,S)-DOTAP chloride: storage as in Tables 1 and 1a
Protocol: In order to determine the stability of crystalline (2R,S)-DOTAP chloride, the substance is stored at 25° C. and 60% relative humidity (table 1) or at 40° C. and 75% relative humidity (table 1a) with exclusion of air. The remaining content of (2R,S)-DOTAP chloride is measured at periodic intervals and quoted in comparison to the initial value.
The purity and content of DOTAP chloride are determined by means of HPLC using the following method:
HPLC equipment: Agilent 1200 HPLC • column: ODS-3: 150×3 mm, 3 μm. GI Sciences: lnertsil • eluent A: 10 mM pentanesulfonic acid sodium salt in 0.085%ic aqueous H3PO4 • eluent B: 3.85 mM pentanesulfonic acid sodium salt in 94% acetonitrile containing 0.085%ic aqueous H3PO4
• runtime: 25 min • flow: 1.5 ml/min • pressure: ca. 220 bar • column temperature: 50° C. • injection volume: 10 μl
The stability determination can be repeated at any desired time, the values indicated in Tables 1 and 1a are reproducible.

[3] = Solubility in acetonitrile; format: physicochemical; conditions: room temperature
[4] = some in-vitro studies, compared with DOTAP chloride; cited from earlier work
[5] = storage under protective gas at −20° C.; cited from earlier work
[6] = amorphous form, normal atmospheric humidity levels; cited from earlier work
[7] = 25° C., 60% relative humidity, 0 months
[8] = 25° C., 60% relative humidity, 3 months
[9] = 25° C., 60% relative humidity, 6 months
[10] = 25° C., 60% relative humidity, 9 months
[11] = 25° C., 60% relative humidity, 12 months
[12] = 25° C., 60% relative humidity, 24 months
[13] = 25° C., 60% relative humidity, 36 months
[14] = 40° C., 75% relative humidity, 0 months
[15] = 40° C., 75% relative humidity, 3 months
[16] = 40° C., 75% relative humidity, 6 months
[17] = 40° C., 75% relative humidity, 9 months
[18] = 40° C., 75% relative humidity, 12 months

CCCCCCCC/C=C\CCCCCCCC(=O)OCC(C[N+](C)(C)C)OC(=O)CCCCCCC/C=C\CCCCCCCC.[Cl-] (racemic) [(2R,S)-DOTAP chloride crystalline, (R,S)-1,2-dioleoyl-3-propyltrimethylammonium chloride]
hygroscopicity [1]: remarkably reduced hygroscopicity | remaining content of (2R,S)-DOTAP chloride (HPLC) [2, 7]: 99.5 % by weight | remaining content/purity of (2R,S)-DOTAP chloride (HPLC) [2, 7]: 99.7 Area-% | remaining content of (2R,S)-DOTAP chloride (HPLC) [2, 8]: 99.7 % by weight | remaining content/purity of (2R,S)-DOTAP chloride (HPLC) [2, 8]: 99.6 Area-% | remaining content of (2R,S)-DOTAP chloride (HPLC) [2, 9]: 99.4 % by weight | remaining content/purity of (2R,S)-DOTAP chloride (HPLC) [2, 9]: 99.5 Area-% | remaining content of (2R,S)-DOTAP chloride (HPLC) [2, 10]: 99.2 % by weight | remaining content/purity of (2R,S)-DOTAP chloride (HPLC) [2, 10]: 99.2 Area-% | remaining content of (2R,S)-DOTAP chloride (HPLC) [2, 11]: 99.5 % by weight | remaining content/purity of (2R,S)-DOTAP chloride (HPLC) [2, 11]: 99.5 Area-% | remaining content of (2R,S)-DOTAP chloride (HPLC) [2, 12]: 99.5 % by weight | remaining content/purity of (2R,S)-DOTAP chloride (HPLC) [2, 12]: 99.7 Area-% | remaining content of (2R,S)-DOTAP chloride (HPLC) [2, 13]: 99.7 % by weight | remaining content/purity of (2R,S)-DOTAP chloride (HPLC) [2, 13]: 99.3 Area-% | degradation on storage ([2]; 25 ± 2° C., after 36 months): The above stability data confirms that crystalline DOTAP chloride is a stable substance. Even after 36-months no significant degradation was observed for the samples stored at 25 ± 2 °C | remaining content of (2R,S)-DOTAP chloride (HPLC) [2, 14]: 99.5 % by weight | remaining content/purity of (2R,S)-DOTAP chloride (HPLC) [2, 14]: 99.7 Area-% | remaining content of (2R,S)-DOTAP chloride (HPLC) [2, 15]: 99.6 % by weight | remaining content/purity of (2R,S)-DOTAP chloride (HPLC) [2, 15]: 99.6 Area-% | remaining content of (2R,S)-DOTAP chloride (HPLC) [2, 16]: 99.6 % by weight | remaining content/purity of (2R,S)-DOTAP chloride (HPLC) [2, 16]: 99.4 Area-% | remaining content of (2R,S)-DOTAP chloride (HPLC) [2, 17]: 98.9 % by weight | remaining content/purity of (2R,S)-DOTAP chloride (HPLC) [2, 17]: 99.3 Area-% | remaining content of (2R,S)-DOTAP chloride (HPLC) [2, 18]: 99.7 % by weight | remaining content/purity of (2R,S)-DOTAP chloride (HPLC) [2, 18]: 99.4 Area-% | degradation on storage ([2]; accelerated conditions, 40 ± 2° C., after 12 months): The above stability data confirms that crystalline DOTAP Chloride is a stable substance. Even at accelerated conditions after 12-months no significant degradation was observed for the samples stored at 40 ± 2 °C | stability determined by HPLC in relation to the starting value ([2]; stored at 25° C. for 36 months): higher than 99 % by weight and area-% | stability determined by HPLC in relation to the starting value ([2]; stored at 40° C. for 12 months): higher than 99 % by weight and area-% | solubility in acetonitrile [3]: virtually insoluble

CCCCCCCC/C=C\CCCCCCCC(=O)OCC(C[N+](C)(C)C)OC(=O)CCCCCCC/C=C\CCCCCCCC.COS(=O)(=O)[O-] (stereo not shown) [DOTAP methylsulfate]
transfection rate [4]: better transfection rates than DOTAP chloride

CCCCCCCC/C=C\CCCCCCCC(=O)OCC(C[N+](C)(C)C)OC(=O)CCCCCCC/C=C\CCCCCCCC.[Cl-] (stereo not shown) [amorphous DOTAP chloride, 1,2-dioleoyloxy-3-trimethylammonium propane chloride]
shelf life guaranteed by the manufacturer [5]: about 6 months | hygroscopicity [6]: extremely hygroscopic

(R)-1,2-dioleoyl-3-propyltrimethylammonium chloride [Crystalline (2R)-DOTAP chloride]
hygroscopicity [1]: remarkably reduced hygroscopicity | stability values compared with crystalline (2R,S)-DOTAP chloride [2]: Crystalline (2R)- and (2S)-DOTAP chloride show comparable stability values.

(S)-1,2-dioleoyl-3-propyltrimethylammonium chloride [Crystalline (2S)-DOTAP chloride]
hygroscopicity [1]: remarkably reduced hygroscopicity | stability values compared with crystalline (2R,S)-DOTAP chloride [2]: Crystalline (2R)- and (2S)-DOTAP chloride show comparable stability values.
